Measurements reported in US11167007B2, “FOXM1 modulators and uses thereof” (City of Hope, priority 2016, dated 2021).

Columns and labels:
FOXM1/β-catenin = biological target: T1, FOXM1/β-catenin (Mus musculus, UniProt O08696); experiment: Co-immunoprecipitation of β-catenin from GT1-7 cell lysates, Western blot for FOXM1; type: cell-based, murine; conditions: FIG. 3E
T1 construct: endogenous in cells; host or cells: GT1-7
T1 sequence (O08696 1-760): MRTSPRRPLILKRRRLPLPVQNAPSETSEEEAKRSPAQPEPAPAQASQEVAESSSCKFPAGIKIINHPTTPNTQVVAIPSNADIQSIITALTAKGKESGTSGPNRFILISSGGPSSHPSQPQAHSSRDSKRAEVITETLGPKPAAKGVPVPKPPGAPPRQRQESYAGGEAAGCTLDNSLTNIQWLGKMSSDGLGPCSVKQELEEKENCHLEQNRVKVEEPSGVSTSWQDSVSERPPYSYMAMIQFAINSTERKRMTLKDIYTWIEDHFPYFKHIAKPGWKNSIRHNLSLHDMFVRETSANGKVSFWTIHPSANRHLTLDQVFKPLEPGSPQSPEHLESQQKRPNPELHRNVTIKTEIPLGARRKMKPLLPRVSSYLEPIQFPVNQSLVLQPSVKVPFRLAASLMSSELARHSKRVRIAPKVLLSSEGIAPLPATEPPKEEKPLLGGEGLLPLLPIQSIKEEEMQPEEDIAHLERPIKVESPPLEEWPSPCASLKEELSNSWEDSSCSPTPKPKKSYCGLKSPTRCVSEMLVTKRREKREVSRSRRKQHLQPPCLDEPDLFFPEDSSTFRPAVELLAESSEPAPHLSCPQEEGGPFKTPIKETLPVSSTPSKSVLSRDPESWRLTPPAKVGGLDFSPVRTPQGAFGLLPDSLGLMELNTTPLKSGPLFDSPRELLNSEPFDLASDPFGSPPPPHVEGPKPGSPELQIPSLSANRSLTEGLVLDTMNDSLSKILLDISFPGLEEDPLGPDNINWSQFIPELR
Procedure: Immunoprecipitation (IP). The co-IP assay was performed as described by Zhang et al, Cancer Cell, 20(4):427-42 (2011). In brief, cells were lysed on ice for 20 minutes in co-IP buffer containing 10 mmol/L Hepes (pH8), 300 mmol/L NaCL, 0.1 mmol/L EDTA, 20% glycerol, 0.2% NP-40 and protease inhibitor (Roche Diagnostics). Lysate was centrifuged at 10000 g for 10 minutes at 4° C. Lysate was incubated with primary antibody (β-catenin: rabbit, 9562, Cell Signaling Technology) overnight at 4° C. followed by incubation with 30 uL of Protein A/G beads for 2 hours at 4° C. Collected protein complexes were washed and analyzed by Western blotting.
Western Blot. Cell lysates was separated on a 6% SDS page gel and transferred to a nitrocellulose membrane. The membrane was blocked for one hour in 5% skim milk dissolved in TBS-T and probed with the following antibodies ([…]): FoxM1 (rabbit, GeneTex), AR: 441 (mouse, Santa Cruz Biotechnology), β-catenin (rabbit 9562, Cell Signaling Technology), p84 (mouse, GeneTex) and actin (mouse, Santa Cruz Biotechnology). Horse radish peroxidase linked secondary antibodies were used along with ECL reagents for visualization. Western blots were quantified using Quantity One analysis software (BioRad).
Co-immunoprecipitation confirmed a direct interaction between β-catenin and FOXM1 as well as between β-catenin and AR (FIG. 3E). […]

[1] = Pilot pharmacokinetic study, plasma and spinal fluid by LC-MS/MS; type: in vivo, rat
Procedure: Animals and Drugs. This study was carried out in strict accordance with the recommendations in the Guide for the Care and Use of Laboratory Animals of the National Institutes of Health. All experiments were performed under the IUCAC approval of City of Hope. Animals were purchased from Jackson Laboratory (Bar Harbor, Main). For the pilot pharmacokinetic experiment, nine male Sprague Dawley rats (n=3) were administered 1, 10, or 100 mg/kg intraperitoneal injections thrice per week for four weeks. One hour following the final dose, blood and spinal fluid were collected and analyzed by mass spectrometry. For the efficacy experiment, rats were divided into 3 groups (n=7) as follows: intact, castrated, and thiostrepton. Thiostrepton was dissolved in 20% DMSO and 80% PEG400 (Sigma Aldrich) and administered at a concentration of 50 mg/kg per day via an IP osmotic pump implant (Alzet). Following a treatment period of 7 days, rats were euthanized and organs harvested, weighed and processed for quantitative RT-PCR.
LC-MS/MS methods. Dried samples were resuspended in tetrahydrofuran spiked with 5 pg/μl reserpine, which was used as an instrument response control. Resuspended samples were separated with an Agilent 1290 UHPLC system (Agilent Technologies, Santa Clara, Calif.) and a Waters Acquity CSH C18 column (Waters, Millford, Mass.) using a linear gradient from 95% buffer A (0.1% formic acid in 60% water/40% acetonitrile) to 100% buffer B (0.1% formic acid in 90% isopropanol/10% acetonitrile) over 2.5 minutes at 380 μL/minute. The UHPLC column eluent was sprayed into an Agilent 6490 triple quadrupole mass spectrometer equipped with a JetStream source (Agilent Technologies). Thiostrepton was detected by monitoring fragments from the doubly charged ion (m/z 832.9) at m/z 1247.4 and 1230.3. Data was analyzed using Agilent MassHunter quantitative analysis software.
A pilot pharmacokinetic study in rats was conducted to achieve desired dosing and to determine if thiostrepton crosses the blood brain barrier. Rats (n=3/group) received low (1 mg/kg), medium (10 mg/kg), or high (100 mg/kg) doses of thiostepton by intraperitoneal (IP) injection, three times a week for four weeks. One hour after the final dose, animals were euthanized and blood and spinal fluid was collected and analyzed by LC-MS/MS (FIG. 5A).

C=C(NC(=O)C(=C)NC(=O)c1csc(C2=N[C@@H]3c4csc(n4)[C@H]4NC(=O)c5csc(n5)[C@H]([C@](C)(O)[C@@H](C)O)NC(=O)[C@H]5CSC(=N5)/C(=C/C)NC(=O)[C@H]([C@@H](C)O)NC(=O)c5csc(n5)[C@]3(CC2)NC(=O)[C@H](C)NC(=O)C(=C)NC(=O)[C@H](C)NC(=O)[C@H]([C@@H](C)CC)N[C@@H]2C=Cc3c([C@H](C)O)cc(nc3[C@H]2O)C(=O)O[C@@H]4C)n1)C(N)=O [thiostrepton]
amount of FOXM1 pulled down with β-catenin (FOXM1/β-catenin): reduced
plasma levels ([1]; rats, 1, 10, 100 mg/kg IP three times a week for four weeks, one hour after final dose): dose-dependent increase
spinal fluid level relative to plasma ([1]; rats, IP, one hour after final dose): much lower levels than the plasma
spinal fluid concentration relative to IC50 in luciferase assay ([1]; rats, high dose): above its IC50
levels of drug in the spinal fluid ([1]; rats, high dose (100 mg/kg) IP, one hour after final dose): measurable levels
